Laboratory results published in patent US20170293715A1, “SYSTEMS, METHODS AND SOFTWARE FOR RANKING POTENTIAL GEROPROTECTIVE DRUGS” (Insilico Medicine, Inc., priority 2014, published 2017).
Several values for one entry are separate records, joined by “and”; a condition that tells them apart may be missing. Equal entries are not always repeated.

Experiments:
Type in all cases: cell-based
AHR signaling pathway = assay: PAS score of AHR pathway in late-passage human fibroblasts cultured with putative geroprotectors; settings: 48 hours, aged human fibroblasts (aliquot C) vs aliquot A control
Description: (§1) PASp=ΣNIInp×ARRnp×BTIFn×lg(CNRn)
(§2) The culture of human fibroblasts was isolated from skin of a healthy adult donor and cultured for five passages in DMEM/F12 medium supplemented by 10% FBS. The tissue sample was obtained with the written consent of a donor according to EU and local ethical guidelines. An aliquot containing ˜10 million cells was frozen in liquid nitrogen (aliquot A), whereas the remaining part of the cell culture was grown for 20 additional passages in the same medium. The cells were then harvested and stored in liquid nitrogen (aliquot B). Aliquot B cells were then cultured for two additional passages and then cultured for 48 hours in the presence of four putative geroprotector drugs. The resulting cells were harvested (aliquot C). The transcriptomes of the aliquots A, B and C were investigated with the Illumina HT12 v4 gene expression microarrays (Illumina, USA). In such a way we profiled expression of the genes implicated in the functioning of the following ten signaling pathways: AHR, AKT, Circadian, DNA repair mechanisms, EGFR, ERK signaling, Estrogen pathway, FLT3, Growth hormone, Hedgehog.
(§3) Zero PAS value means identical signaling pathway activation pattern in the older (aliquots B and C) and younger (aliquot A) fibroblasts.

[1] = tested on: Circadian signaling pathway; assay: PAS score of Circadian pathway in late-passage human fibroblasts cultured with putative geroprotectors; settings: 48 hours, aged human fibroblasts (aliquot C) vs aliquot A control
Description: as §1, §2, §3

FLT3 signaling pathway = assay: PAS score of FLT3 pathway in late-passage human fibroblasts cultured with putative geroprotectors; design: unit of the concentration uncertain; settings: 48 hours, aged human fibroblasts (aliquot C) vs aliquot A control
Description: as §1, §2, §3

[2] = tested on: Hedgehog signaling pathway; assay: PAS score of Hedgehog pathway in late-passage human fibroblasts cultured with putative geroprotectors; design: unit of the concentration uncertain; settings: 48 hours, aged human fibroblasts (aliquot C) vs aliquot A control
Description: as §1
The culture of human fibroblasts was isolated from skin of a healthy adult donor and cultured for five passages in DMEM/F12 medium supplemented by 10% FBS. The tissue sample was obtained with the written consent of a donor according to EU and local ethical guidelines. An aliquot containing ˜10 million cells was frozen in liquid nitrogen (aliquot A), whereas the remaining part of the cell culture was grown for 20 additional passages in the same medium. The cells were then harvested and stored in liquid nitrogen (aliquot B). Aliquot B cells were then cultured for two additional passages and then cultured for 48 hours in the presence of four putative geroprotector drugs. The resulting cells were harvested (aliquot C). The transcriptomes of the aliquots A, B and C were investigated with the Illumina HT12 v4 gene expression microarrays (Illumina, USA). In such a way we profiled expression of the genes implicated in the functioning of the following ten signaling pathways: AHR, AKT, Circadian, DNA repair mechanisms, EGFR, ERK signaling, Estrogen pathway, FLT3, Growth hormone, Hedgehog. The information about pathway configuration and functional roles of the individual genes was taken from the public database provided by SABiosciences (SABiosciences, a Qiagen company. Using Student statistical criterion and a threshold p-value <0.05, we identified a list of the differential genes and calculated for them CNRn values. The set of gene expression data corresponding to the “aliquot A” group of samples was taken as the control. The data were processed with the algorithm for the calculation of PAS, and the following pathway activation data were obtained (Table 9).
Zero PAS value means identical signaling pathway activation pattern in the older (aliquots B and C) and younger (aliquot A) fibroblasts. […] The present invention proposes ranking of the geroprotector drugs according to their ability to compensate aging-related differences in signaling pathway activation reflected by the PAS values.

human skin fibroblasts = assay: Reversion of PAS patterns to the younger state, ranking of geroprotectors
Description: (§4) The culture of human fibroblasts was isolated from skin of a healthy adult donor and cultured for five passages in DMEM/F12 medium supplemented by 10% FBS. The tissue sample was obtained with the written consent of a donor according to EU and local ethical guidelines. An aliquot containing ˜10 million cells was frozen in liquid nitrogen (aliquot A), whereas the remaining part of the cell culture was grown for 20 additional passages in the same medium. The cells were then harvested and stored in liquid nitrogen (aliquot B). Aliquot B cells were then cultured for two additional passages and then cultured for 48 hours in the presence of four putative geroprotector drugs. The resulting cells were harvested (aliquot C). […] The information about pathway configuration and functional roles of the individual genes was taken from the public database provided by SABiosciences (SABiosciences, a Qiagen company. Using Student statistical criterion and a threshold p-value <0.05, we identified a list of the differential genes and calculated for them CNRn values. The set of gene expression data corresponding to the “aliquot A” group of samples was taken as the control. The data were processed with the algorithm for the calculation of PAS, and the following pathway activation data were obtained (Table 9). […]

DNA repair mechanisms = assay: PAS score of DNA repair pathway in late-passage human fibroblasts cultured with putative geroprotectors; settings: 1 mM, 48 hours, aged human fibroblasts (aliquot C) vs aliquot A control
Description: as §1, §4

[3] = tested on: Growth hormone (GH) signaling pathway; assay: PAS score of Growth hormone pathway in late-passage human fibroblasts cultured with putative geroprotectors; settings: 1 mM, 48 hours, aged human fibroblasts (aliquot C) vs aliquot A control
Description: as §1, §4

O=C(O)c1nn(Cc2ccc(Cl)cc2Cl)c2ccccc12 [Lonidamine]
PAS AHR (AHR signaling pathway; 5 mM): 2 and 4 | PAS Circadian ([1]; 5 mM): 5 and 7 | PAS FLT3 (FLT3 signaling pathway; 5 (unit uncertain)): −1 | PAS Hedgehog ([2]; 5 (unit uncertain)): 17 and 22

Oc1ccc(C=Cc2cc(O)cc(O)c2)cc1 [Resveratrol]
PAS Circadian ([1]; 1 mM): 4 | PAS FLT3 (FLT3 signaling pathway; 1 (unit uncertain)): 2 | PAS Hedgehog ([2]; 1 (unit uncertain)): 9 and 11 | pathways whose PAS patterns were better reverted to the younger state (human skin fibroblasts; 1 mM, of the ten pathways tested): 7/10 | ranking as geroprotector among the four tested (human skin fibroblasts; combined experimental and biomathematical system): best putative geroprotector drug

NCCCCNCCCN [Spermidine]
PAS AHR (AHR signaling pathway; 1 mM): 3 and 2 | PAS Circadian ([1]; 1 mM): 5 and 8 | PAS DNA repair (DNA repair mechanisms): −10 | PAS GH [3]: −9 | PAS Hedgehog ([2]; 1 (unit uncertain)): 17 and 18

COC[C@H]1OC(=O)c2coc3c2[C@@]1(C)C1=C(C3=O)[C@@H]2CCC(=O)[C@@]2(C)C[C@H]1OC(C)=O [Wortmannin]
PAS AHR (AHR signaling pathway; 0.5 mM): 1 and 2 | PAS Circadian ([1]; 0.5 mM): 6 and 5 | PAS Hedgehog ([2]; 0.5 (unit uncertain)): 12 and 10
